Tests used:
[1] = system: Escherichia coli expressing NDM-1 (CLB30016); assay type: cell-based; conditions: with imipenem 1 μg/ml; 95% inhibition of bacterial growth
Summary of the method: (§1)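 Each strain, diluted 1:100 from saline suspension into 1.1× CAMHB, was combined with imipenem held at 1 μg/ml and graded inhibitor. Growth after 22–24 h at 35 °C was measured by absorbance, and the lowest concentration achieving 95% inhibition defined MITC95.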

[2] = system: Klebsiella pneumoniae expressing VIM-1 (IHMA599644); assay type: cell-based; conditions: with imipenem 1 μg/ml; 95% inhibition of bacterial growth
Summary of the method: as §1

[3] = system: Serratia marcescens expressing IMP-1 (CL5741); assay type: cell-based; conditions: with imipenem 1 μg/ml; 95% inhibition of bacterial growth
Summary of the method: as §1

VIM-1 = VIM-1 (Pseudomonas aeruginosa (strain ATCC 15692 / DSM 22644 / CIP 104116 / JCM 14847 / LMG 12228 / 1C / PRS 101 / PAO1), UniProt A0A0F7KYQ8); assay: biochemical; conditions: CCF2-FA fluorescence assay, 2 hours at 25° C.; read-out: VIM1 IC50
Summary of the method: (§2)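 Each enzyme (final 1 pM NDM-1, 2 pM IMP-1, 30 pM VIM-1) was incubated with test inhibitor (20 μM to 0.00063 μM) and 1.25 μM CCF2-FA for 2 hours at 25° C in zinc-supplemented phosphate buffer, pH 7. Fluorescence at 460 nm was then read and IC50 fitted with four parameters.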

IMP-1 = IMP-1 (Serratia marcescens, UniProt P52699); assay: biochemical; conditions: CCF2-FA fluorescence assay, 2 hours at 25° C.; read-out: IMP1 IC50
IMP-1, sequence (P52699 whole entry, looked up, species assumed): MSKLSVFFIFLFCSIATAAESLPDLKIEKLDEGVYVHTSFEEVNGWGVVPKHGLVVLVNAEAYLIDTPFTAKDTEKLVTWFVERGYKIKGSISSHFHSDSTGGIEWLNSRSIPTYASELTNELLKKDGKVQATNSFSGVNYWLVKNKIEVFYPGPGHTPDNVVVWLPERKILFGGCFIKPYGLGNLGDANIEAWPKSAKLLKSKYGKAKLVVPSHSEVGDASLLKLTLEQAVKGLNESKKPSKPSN
Summary of the method: as §2

VIM-2 = VIM-2 (Escherichia coli, UniProt Q5U7L7); assay: biochemical; conditions: CCF2-FA fluorescence assay; read-out: VIM2 IC50
[4] = system: P. aeruginosa MB9799 (efflux-, IMP-1 plasmid); assay type: cell-based, Pseudomonas aeruginosa; conditions: efflux − (MB9799) strain; imipenem at 2 μg/mL; in the presence of a class A, C, D serine β-lactamase inhibitor closely related to relebactam
Summary of the method: (§3)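 PAO1-derived isogenic pair (oprD+, inducible AmpC), efflux+ MB5919 or efflux− MB5890 parent, carrying an electroporated IMP-1 plasmid from a clinical isolate. Microbroth MIC with fixed imipenem and/or ceftazidime (usually CLSI breakpoint) plus fixed class A/C inhibitor; MBL inhibitor serially titrated, concentration restoring susceptibility recorded.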

[5] = system: P. aeruginosa MB9798 (efflux+, IMP-1 plasmid); conditions: for MB9798 MITC95 P. aeruginosa uM Efflux WT: efflux + (MB9798) strain, imipenem at 2 μg/mL, in the presence of a class A, C, D serine β-lactamase inhibitor closely related to relebactam; for Efflux ratio: fold difference between efflux+ (MB9798) and efflux− (MB9799) strains
Summary of the method: as §3

NDM-1 = NDM-1 (Klebsiella pneumoniae, UniProt C7C422); assay: biochemical; assay type: biochemical; conditions: CCF2-FA fluorescence assay, 2 hours at 25° C.
NDM-1, sequence (C7C422 whole entry, looked up, species assumed): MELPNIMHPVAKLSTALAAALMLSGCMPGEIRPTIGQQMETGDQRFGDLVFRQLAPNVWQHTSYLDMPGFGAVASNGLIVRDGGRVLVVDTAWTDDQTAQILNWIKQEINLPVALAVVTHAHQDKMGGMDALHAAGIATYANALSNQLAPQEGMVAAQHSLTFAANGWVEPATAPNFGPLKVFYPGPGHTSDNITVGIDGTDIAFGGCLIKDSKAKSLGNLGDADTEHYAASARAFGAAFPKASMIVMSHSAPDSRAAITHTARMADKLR
Summary of the method: as §2

| SMILES | CLB30016 E. coli MITC95 NDM [1] [µM] | IHMA599644 K. pneumoniae MITC95 VIM [2] [µM] | CL5741 S. marcescens MITC95 IMP [3] [µM] | IC50 (VIM-1) [nM] | IC50 (IMP-1) [nM] | IC50 (VIM-2) [nM] | MB9799 MITC95 P. aeruginosa uM Efflux Mutant [4] [µM] | MB9798 MITC95 P. aeruginosa uM Efflux WT [5] [µM] | Efflux ratio [5] | IC50 (NDM-1) [nM] |
| --- | --- | --- | --- | --- | --- | --- | --- | --- | --- | --- |
| NC[C@@H](O)CNS(=O)(=O)c1ccc(N2CCC[C@@H](NCCO)C2)c(-c2nn[nH]n2)c1S(N)(=O)=O [Example 130, N1-((R)-3-amino-2-hydroxypropyl)-4-((R)-3-((2-hydroxyethyl)amino)piperidin-1-yl)-3-(2H-tetrazol-5-yl)benzene-1,2-disulfonamide bis(2,2,2-trifluoroacetate)] | 0.78 | 1.56 | 3.13 | 4.21 | 128 | 5.47 | 3.13 | 12.50 | 4.00 | 32 |
| NCCNS(=O)(=O)C1CCN(c2ccc(S(=O)(=O)NC[C@H](O)CN)c(S(N)(=O)=O)c2-c2nn[nH]n2)CC1 [Example 131, (R)-N1-(3-amino-2-hydroxypropyl)-4-(4-(N-(2-aminoethyl)sulfamoyl)piperidin-1-yl)-3-(2H-tetrazol-5-yl)benzene-1,2-disulfonamide] | 0.39 | 1.56 | 0.78 | 0.11 | 0.87 | 1.05 | 0.78 | 0.78 | 1.00 | 0.79 |
| NCC(O)C1CCN(c2ccc(S(=O)(=O)NC[C@H](O)CN)c(S(N)(=O)=O)c2-c2nn[nH]n2)CC1 (stereo partly drawn) [Example 132, 4-(4-(2-amino-1-hydroxyethyl)piperidin-1-yl)-N1-((R)-3-amino-2-hydroxypropyl)-3-(2H-tetrazol-5-yl)benzene-1,2-disulfonamide] | 0.39 | 1.56 | 0.78 | 0.19 | 2.49 | 4.28 | 0.78 | 0.78 | 1.00 | 1.34 |
| NC[C@@H](O)CNS(=O)(=O)c1ccc(N2CCC3(CCNC3)C2)c(-c2nn[nH]n2)c1S(N)(=O)=O (stereo partly drawn) [Example 133, di-trifluoroacetic acid] | 0.78 | 0.78 | 1.56 | 2.07 | 24 | 57.9 | 1.56 | 3.13 | 2.00 | 12.7 |
| Cl.Cl.NCC1CCN(c2ccc(S(=O)(=O)N[C@@H]3CCNC3)c(S(N)(=O)=O)c2-c2nn[nH]n2)CC1 [Example 135, (R)-4-(4-(aminomethyl)piperidin-1-yl)-N1-(pyrrolidin-3-yl)-3-(2H-tetrazol-5-yl)benzene-1,2-disulfonamide dihydrochloride] | 0.59 | 1.17 | 0.78 | 0.16 | 3.43 | 3 | 0.39 | 0.59 | 1.50 | 1.13 |
| CN(CCO)CCN(C)c1ccc(S(=O)(=O)NC[C@H](O)CN)c(S(N)(=O)=O)c1-c1nn[nH]n1 [Example 136, (R)—N1-(3-amino-2-hydroxypropyl)-4-((2-((2-hydroxyethyl)(methyl)amino)ethyl)(methyl)amino)-3-(2H-tetrazol-5-yl)benzene-1,2-disulfonamide] | 3.13 | 1.56 | 12.50 | 14.2 | 200 | 27.4 | 12.50 | 50.00 | 4.00 | 200 |
| N.NC[C@@H](O)CNS(=O)(=O)c1ccc(N2CCN(CC(=O)O)CC2)c(-c2nnn[nH]2)c1S(N)(=O)=O [Example 137, ammonium (R)-2-(4-(4-(N-(3-amino-2-hydroxypropyl)sulfamoyl)-3-sulfamoyl-2-(1H-tetrazol-5-yl)phenyl)piperazin-1-yl)acetate] | 0.78 | 6.25 | 1.56 | 16.1 | 4.97 | 15.3 | 3.13 | 6.25 | 2.00 | 3.5 |
| CC1(CN)CCN(c2ccc(S(=O)(=O)NC[C@H](O)CN)c(S(N)(=O)=O)c2-c2nn[nH]n2)CC1 [Example 138, (R)-N1-(3-amino-2-hydroxypropyl)-4-(4-(aminomethyl)-4-methylpiperidin-1-yl)-3-(2H-tetrazol-5-yl)benzene-1,2-disulfonamide] | 1.56 | 1.56 | 1.56 | 0.71 | 6.91 | 10.3 | 0.78 | 1.56 | 2.00 | 2.47 |
| NCC1CCCN(c2ccc(S(=O)(=O)NC[C@H](O)CN)c(S(N)(=O)=O)c2-c2nn[nH]n2)CC1 (stereo partly drawn) [Example 139, N1-((R)-3-amino-2-hydroxypropyl)-4-(4-(aminomethyl)azepan-1-yl)-3-(2H-tetrazol-5-yl)benzene-1,2-disulfonamide bis(2,2,2-trifluoroacetate)] | 0.78 | 1.56 | 0.78 | 0.39 | 18.5 | 4.52 | 0.78 | 1.56 | 2.00 | 18.2 |
| NCCC1CCCN(c2ccc(S(=O)(=O)NC[C@H](O)CN)c(S(N)(=O)=O)c2-c2nn[nH]n2)CC1 (stereo partly drawn) [Example 140, N1-((R)-3-amino-2-hydroxypropyl)-4-(4-(2-aminoethyl)azepan-1-yl)-3-(2H-tetrazol-5-yl)benzene-1,2-disulfonamide bis(2,2,2-trifluoroacetate)] | 1.56 | 0.78 | 0.78 | 0.1 | 6.34 | 1.87 | 0.78 | 1.56 | 2.00 | 3.75 |
| NC[C@@H](O)CNS(=O)(=O)c1ccc(N2CCC3CNCC3C2)c(-c2nnn[nH]2)c1S(N)(=O)=O (stereo partly drawn) [Example 141, N1-((R)-3-amino-2-hydroxypropyl)-4-(hexahydro-1H-pyrrolo[3,4-c]pyridin-5(6H)-yl)-3-(1H-tetrazol-5-yl)benzene-1,2-disulfonamide] | 1.56 | 1.56 | 1.56 | 0.43 | 11.9 | 15.7 | 1.56 | 6.25 | 4.00 | 15.8 |
| NC[C@@H](O)CNS(=O)(=O)c1ccc(N2CCC(NCCO)CC2)c(-c2nn[nH]n2)c1S(N)(=O)=O [Example 142, (R)-N1-(3-amino-2-hydroxypropyl)-4-(4-((2-hydroxyethyl)amino)piperidin-1-yl)-3-(2H-tetrazol-5-yl)benzene-1,2-disulfonamide bis(2,2,2-trifluoroacetate)] | 0.39 | 1.56 | 0.78 | 0.42 | 5.95 | 9.26 | 0.78 | 0.78 | 1.00 | 7.59 |
